Earlier results in patent publication US12577179B2, “Methods and compositions for soil regeneration and improved soil hydrology” (Locus Solutions IPCo, LLC, priority 2021, dated 2026).

Details: surfactant micelles; no method or source given

First: Nonidet P40
Second: CCCCCCCC/C=C\CCCCCCCC(=O)OCCOCC(OCCO)C1OCC(OCCO)C1OCCO (stereo not shown) [Tween-80]
The micelle size of the first is higher: 15.4 nm for the first, 11.7 nm for the second.

For Triton X-100, the micelle size is given as 7.5 nm.

For `CCCCCCCCCCCCOS(=O)(=O)[O-].[Na+]` [sodium dodecyl sulfate], the micelle size is listed as 3.5-6 nm.
